Results: PubChem BioAssay (NCI)
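Growth conditions: 96-well plates. Treatment: test compound, 48 hours, 5 concentrations. Analysis: linear interpolation between bracketing concentrations; unreached endpoints set to highest concentration. The concentration for 50% growth inhibition is given as GI50. TGI is the concentration that stops growth completely.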

Key:
Assay in all cases: inhibition of tumour cell growth, NCI panel, 48 h
CAKI-1 renal = tested on: CAKI-1 renal
NCI-H522 lung = tested on: NCI-H522 lung
KM12 colon = tested on: KM12 colon
A498 renal = tested on: A498 renal
HOP-92 NSCLC = tested on: HOP-92 NSCLC
SK-MEL-5 melanoma = tested on: SK-MEL-5 melanoma
HCT-116 colon = tested on: HCT-116 colon
ACHN renal = tested on: ACHN renal
HT29 colon = tested on: HT29 colon
HS 578T breast = tested on: HS 578T breast
PC-3 prostate = tested on: PC-3 prostate
OVCAR-8 ovarian = tested on: OVCAR-8 ovarian
NCI/ADR-RES ovarian = tested on: NCI/ADR-RES ovarian
MALME-3M melanoma = tested on: MALME-3M melanoma
SN12C renal = tested on: SN12C renal
DU-145 prostate = tested on: DU-145 prostate
SW-620 colon = tested on: SW-620 colon
M14 melanoma = tested on: M14 melanoma
OVCAR-4 ovarian = tested on: OVCAR-4 ovarian
OVCAR-3 ovarian = tested on: OVCAR-3 ovarian
UACC-62 melanoma = tested on: UACC-62 melanoma
MCF7 breast = tested on: MCF7 breast
U251 CNS = tested on: U251 CNS
IGROV1 ovarian = tested on: IGROV1 ovarian
SK-OV-3 ovarian = tested on: SK-OV-3 ovarian
SNB-19 CNS = tested on: SNB-19 CNS
SK-MEL-2 melanoma = tested on: SK-MEL-2 melanoma
HOP-62 NSCLC = tested on: HOP-62 NSCLC
CCRF-CEM leukemia = tested on: CCRF-CEM leukemia
HCT-15 colon = tested on: HCT-15 colon
OVCAR-5 ovarian = tested on: OVCAR-5 ovarian
NCI-H226 lung = tested on: NCI-H226 lung
COLO 205 colon = tested on: COLO 205 colon
UO-31 renal = tested on: UO-31 renal
SNB-75 CNS = tested on: SNB-75 CNS
K-562 leukemia = tested on: K-562 leukemia
RPMI-8226 leukemia = tested on: RPMI-8226 leukemia
MDA-N = tested on: MDA-N
MDA-MB-231 breast = tested on: MDA-MB-231 breast
A549 NSCLC = tested on: A549 NSCLC
MDA-MB-435 = tested on: MDA-MB-435
RXF 393 renal = tested on: RXF 393 renal
LOX IMVI melanoma = tested on: LOX IMVI melanoma
SK-MEL-28 melanoma = tested on: SK-MEL-28 melanoma
SF-268 CNS = tested on: SF-268 CNS
SF-295 CNS = tested on: SF-295 CNS
TK-10 renal = tested on: TK-10 renal
T-47D breast = tested on: T-47D breast
UACC-257 melanoma = tested on: UACC-257 melanoma
786-0 renal = tested on: 786-0 renal
HL-60(TB) leukemia = tested on: HL-60(TB) leukemia
BT-549 breast = tested on: BT-549 breast
NCI-H23 lung = tested on: NCI-H23 lung
MOLT-4 leukemia = tested on: MOLT-4 leukemia
EKVX NSCLC = tested on: EKVX NSCLC
HCC-2998 colon = tested on: HCC-2998 colon
SF-539 CNS = tested on: SF-539 CNS
NCI-H460 lung = tested on: NCI-H460 lung

CN1CCCC1c1cccnc1.O=C(O)c1ccccc1O.O=C([O-])c1ccccc1[OH2+].O=C([O-])c1ccccc1[OH2+].O=C([O-])c1ccccc1[OH2+].[Cu+2] (centres undefined)
GI50 (CAKI-1 renal): > 100 µM
TGI (CAKI-1 renal): > 100 µM
GI50 (NCI-H522 lung): > 100 µM
TGI (NCI-H522 lung): > 100 µM
GI50 (KM12 colon): > 100 µM
TGI (KM12 colon): > 100 µM
GI50 (A498 renal): 31.3 µM
TGI (A498 renal): 76.1 µM
GI50 (HOP-92 NSCLC): > 100 µM
TGI (HOP-92 NSCLC): > 100 µM
GI50 (SK-MEL-5 melanoma): 33.3 µM
TGI (SK-MEL-5 melanoma): > 100 µM
GI50 (HCT-116 colon): > 100 µM
TGI (HCT-116 colon): > 100 µM
GI50 (ACHN renal): > 100 µM
TGI (ACHN renal): > 100 µM
GI50 (HT29 colon): > 100 µM
TGI (HT29 colon): > 100 µM
GI50 (HS 578T breast): > 100 µM
TGI (HS 578T breast): > 100 µM
GI50 (PC-3 prostate): > 100 µM
TGI (PC-3 prostate): > 100 µM
GI50 (OVCAR-8 ovarian): > 100 µM
TGI (OVCAR-8 ovarian): > 100 µM
GI50 (NCI/ADR-RES ovarian): > 100 µM
TGI (NCI/ADR-RES ovarian): > 100 µM
GI50 (MALME-3M melanoma): > 100 µM
TGI (MALME-3M melanoma): > 100 µM
GI50 (SN12C renal): > 100 µM
TGI (SN12C renal): > 100 µM
GI50 (DU-145 prostate): > 100 µM
TGI (DU-145 prostate): > 100 µM
GI50 (SW-620 colon): > 100 µM
TGI (SW-620 colon): > 100 µM
GI50 (M14 melanoma): > 100 µM
TGI (M14 melanoma): > 100 µM
GI50 (OVCAR-4 ovarian): 56.1 µM
TGI (OVCAR-4 ovarian): > 100 µM
GI50 (OVCAR-3 ovarian): > 100 µM
TGI (OVCAR-3 ovarian): > 100 µM
GI50 (UACC-62 melanoma): > 100 µM
TGI (UACC-62 melanoma): > 100 µM
GI50 (MCF7 breast): 45.3 µM
TGI (MCF7 breast): > 100 µM
GI50 (U251 CNS): > 100 µM
TGI (U251 CNS): > 100 µM
GI50 (IGROV1 ovarian): 91.1 µM
TGI (IGROV1 ovarian): > 100 µM
GI50 (SK-OV-3 ovarian): > 100 µM
TGI (SK-OV-3 ovarian): > 100 µM
GI50 (SNB-19 CNS): 39.6 µM
TGI (SNB-19 CNS): > 100 µM
GI50 (SK-MEL-2 melanoma): > 100 µM
TGI (SK-MEL-2 melanoma): > 100 µM
GI50 (HOP-62 NSCLC): > 100 µM
TGI (HOP-62 NSCLC): > 100 µM
GI50 (CCRF-CEM leukemia): > 100 µM
TGI (CCRF-CEM leukemia): > 100 µM
GI50 (HCT-15 colon): > 100 µM
TGI (HCT-15 colon): > 100 µM
GI50 (OVCAR-5 ovarian): > 100 µM
TGI (OVCAR-5 ovarian): > 100 µM
GI50 (NCI-H226 lung): > 100 µM
TGI (NCI-H226 lung): > 100 µM
GI50 (COLO 205 colon): > 100 µM
TGI (COLO 205 colon): > 100 µM
GI50 (UO-31 renal): > 100 µM
TGI (UO-31 renal): > 100 µM
GI50 (SNB-75 CNS): > 100 µM
TGI (SNB-75 CNS): > 100 µM
GI50 (K-562 leukemia): > 100 µM
TGI (K-562 leukemia): > 100 µM
GI50 (RPMI-8226 leukemia): > 100 µM
TGI (RPMI-8226 leukemia): > 100 µM
GI50 (MDA-N): > 100 µM
TGI (MDA-N): > 100 µM
GI50 (MDA-MB-231 breast): > 100 µM
TGI (MDA-MB-231 breast): > 100 µM
GI50 (A549 NSCLC): 78.9 µM
TGI (A549 NSCLC): > 100 µM
GI50 (MDA-MB-435): > 100 µM
TGI (MDA-MB-435): > 100 µM
GI50 (RXF 393 renal): > 100 µM
TGI (RXF 393 renal): > 100 µM
GI50 (LOX IMVI melanoma): > 100 µM
TGI (LOX IMVI melanoma): > 100 µM
GI50 (SK-MEL-28 melanoma): > 100 µM
TGI (SK-MEL-28 melanoma): > 100 µM
GI50 (SF-268 CNS): > 100 µM
TGI (SF-268 CNS): > 100 µM
GI50 (SF-295 CNS): > 100 µM
TGI (SF-295 CNS): > 100 µM
GI50 (TK-10 renal): > 100 µM
TGI (TK-10 renal): > 100 µM
GI50 (T-47D breast): > 100 µM
TGI (T-47D breast): > 100 µM
GI50 (UACC-257 melanoma): > 100 µM
TGI (UACC-257 melanoma): > 100 µM
GI50 (786-0 renal): > 100 µM
TGI (786-0 renal): > 100 µM
GI50 (HL-60(TB) leukemia): > 100 µM
TGI (HL-60(TB) leukemia): > 100 µM
GI50 (BT-549 breast): > 100 µM
TGI (BT-549 breast): > 100 µM
GI50 (NCI-H23 lung): > 100 µM
TGI (NCI-H23 lung): > 100 µM
GI50 (MOLT-4 leukemia): > 100 µM
TGI (MOLT-4 leukemia): > 100 µM
GI50 (EKVX NSCLC): > 100 µM
TGI (EKVX NSCLC): > 100 µM

Cc1cc(-n2c(/C=C/c3ccc(Cl)cc3)nc3cc(Cl)ccc3c2=O)on1
TGI (CAKI-1 renal): > 50 µM
TGI (NCI-H522 lung): > 50 µM
TGI (KM12 colon): > 50 µM
TGI (A498 renal): 11.5 µM
TGI (HOP-92 NSCLC): > 50 µM
TGI (SK-MEL-5 melanoma): > 50 µM
TGI (HCT-116 colon): 29.6 µM
TGI (ACHN renal): 24.1 µM
TGI (HT29 colon): > 50 µM
TGI (HS 578T breast): 31.4 µM
TGI (PC-3 prostate): > 50 µM
TGI (OVCAR-8 ovarian): 47.7 µM
TGI (NCI/ADR-RES ovarian): 39 µM
TGI (MALME-3M melanoma): > 50 µM
TGI (SN12C renal): > 50 µM
TGI (DU-145 prostate): > 50 µM
TGI (SW-620 colon): > 50 µM
TGI (M14 melanoma): 32.9 µM
TGI (OVCAR-4 ovarian): 4.05 µM
TGI (OVCAR-3 ovarian): 30.9 µM
TGI (UACC-62 melanoma): > 50 µM
TGI (MCF7 breast): > 50 µM
TGI (HCC-2998 colon): > 50 µM
TGI (U251 CNS): 16.4 µM
TGI (IGROV1 ovarian): > 50 µM
TGI (SK-OV-3 ovarian): 42.3 µM
TGI (SNB-19 CNS): 26.6 µM
TGI (HOP-62 NSCLC): 18.3 µM
TGI (CCRF-CEM leukemia): > 50 µM
TGI (HCT-15 colon): > 50 µM
TGI (OVCAR-5 ovarian): > 50 µM
TGI (NCI-H226 lung): 33.2 µM
TGI (COLO 205 colon): > 50 µM
TGI (UO-31 renal): 19.7 µM
TGI (SF-539 CNS): > 50 µM
TGI (K-562 leukemia): > 50 µM
TGI (MDA-N): > 50 µM
TGI (MDA-MB-231 breast): 42.4 µM
TGI (A549 NSCLC): > 50 µM
TGI (MDA-MB-435): > 50 µM
TGI (LOX IMVI melanoma): > 50 µM
TGI (SK-MEL-28 melanoma): > 50 µM
TGI (SF-268 CNS): > 50 µM
TGI (SF-295 CNS): > 50 µM
TGI (TK-10 renal): > 50 µM
TGI (T-47D breast): > 50 µM
TGI (UACC-257 melanoma): > 50 µM
TGI (786-0 renal): 5.19 µM
TGI (HL-60(TB) leukemia): > 50 µM
TGI (BT-549 breast): > 50 µM
TGI (NCI-H23 lung): > 50 µM
TGI (MOLT-4 leukemia): > 50 µM
TGI (NCI-H460 lung): 22 µM
TGI (EKVX NSCLC): > 50 µM
